Literature values in US8685950B2, “Use of aromatase inhibitors for treatment of ectopic pregnancy” (Wayne State University, priority 2004, dated 2014).
Structures can show the parent of a compound that is named as a salt.

Tests used:
[1] = tested on: primate endometrium
[2] = tested on: ectopic pregnancy; settings: ectopic pregnancy patients
[3] = baboons; effect reversed by diethylstilbestrol
[4] = tested on: progesterone production; settings: baboon, early pregnancy
[5] = in vivo

Question: For `C1=C(c2ccccc2)C(c2ccc(OCCN3CCCCC3)cc2)Oc2ccccc21` (stereo not drawn) [CDRI-85/287], which “amount of estrogen and progesterone receptors” value [1] is on record?
Answer: decrease the amount of both receptors

Question: For `CN(Cc1cnc2nc(N)nc(N)c2n1)c1ccc(C(=O)N[C@@H](CCC(=O)O)C(=O)O)cc1` [methotrexate], which “period to resolution of the pregnancy” value [2] is on record?
Answer: more than three weeks in most patients

Question: For `CCN(CC)CCOc1ccc(C(O)(Cc2ccc(OC)cc2)c2ccccc2)cc1` (stereo not drawn) [ethamoxytriphetol], which “placental progesterone formation and serum progesterone concentrations” value [3] is on record?
Answer: decreased

Question: With `COc1ccc(C2=C(C(=O)c3ccc(OCCN4CCCC4)cc3)c3ccccc3CC2)cc1` [trioxifene mesylate] as the molecule, how does the plasma progesterone [4] read?
Answer: no such effect was found

Question: With `CCN(CC)CCOc1ccc(C(O)(Cc2ccc(OC)cc2)c2ccccc2)cc1` (stereo not drawn) [MER-25] as the molecule, how does the plasma progesterone [4] read?
Answer: depression in plasma progesterone

Question: Which “patients stopping the treatment because of side effects (lethargy, rashes, nausea, fever)” value [5] does the source give for `CCC1(c2ccc(N)cc2)CCC(=O)NC1=O` (stereo not drawn) [aminoglutethimide] here?
Answer: 8-15%
